Series [1] in a line: Solubility at pH 7.4. The series is classed as physicochemical. To be noted: buffer.
Series [2] can be described thus: Solubility at pH 3. The series is classed as physicochemical. To be noted: buffer.
The next series in a line: in vitro. To be noted: rat.
A short description of the next series: cells. To be noted: Homo sapiens, MDA-MB-361, 4 h.
The target in series [3] is Phosphatidylinositol 4,5-bisphosphate 3-kinase catalytic subunit alpha isoform (Homo sapiens, UniProt P42336).
Chain of Phosphatidylinositol 4,5-bisphosphate 3-kinase catalytic subunit alpha isoform (P42336 whole entry, canonical isoform): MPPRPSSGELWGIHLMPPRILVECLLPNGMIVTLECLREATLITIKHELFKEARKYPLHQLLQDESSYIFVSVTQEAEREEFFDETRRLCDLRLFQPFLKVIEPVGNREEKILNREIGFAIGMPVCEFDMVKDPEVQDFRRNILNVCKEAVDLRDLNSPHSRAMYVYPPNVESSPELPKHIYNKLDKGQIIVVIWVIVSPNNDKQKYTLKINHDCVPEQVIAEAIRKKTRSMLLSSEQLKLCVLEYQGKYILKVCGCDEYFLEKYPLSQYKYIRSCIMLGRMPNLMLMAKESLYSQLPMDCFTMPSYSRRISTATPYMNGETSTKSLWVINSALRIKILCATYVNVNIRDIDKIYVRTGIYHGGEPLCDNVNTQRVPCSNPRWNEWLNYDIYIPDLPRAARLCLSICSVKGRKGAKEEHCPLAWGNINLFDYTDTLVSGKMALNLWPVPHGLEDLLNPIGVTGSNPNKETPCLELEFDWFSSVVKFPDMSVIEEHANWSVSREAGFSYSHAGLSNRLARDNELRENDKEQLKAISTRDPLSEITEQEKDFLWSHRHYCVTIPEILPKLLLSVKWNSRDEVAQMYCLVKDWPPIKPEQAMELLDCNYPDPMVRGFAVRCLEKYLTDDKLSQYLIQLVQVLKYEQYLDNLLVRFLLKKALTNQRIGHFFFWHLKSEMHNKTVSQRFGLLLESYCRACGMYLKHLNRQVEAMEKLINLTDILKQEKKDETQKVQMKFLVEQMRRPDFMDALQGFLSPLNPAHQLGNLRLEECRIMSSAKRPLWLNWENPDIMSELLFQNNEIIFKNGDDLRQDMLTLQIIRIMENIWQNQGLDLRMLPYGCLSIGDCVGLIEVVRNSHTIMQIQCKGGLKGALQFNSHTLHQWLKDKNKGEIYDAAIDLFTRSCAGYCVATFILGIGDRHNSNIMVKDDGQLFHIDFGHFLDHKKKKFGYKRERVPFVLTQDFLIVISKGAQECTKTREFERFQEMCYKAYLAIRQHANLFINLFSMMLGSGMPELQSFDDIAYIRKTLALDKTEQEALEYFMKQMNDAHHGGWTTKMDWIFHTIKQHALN
A further series deals with PC-3. In words: cells. To be noted: Homo sapiens, PC-3, 72 h.
Series [4] can be described thus: Metabolic stability in mouse liver microsomes assessed as half life. The series is classed as ADME, Microsome.
The subject of another series is MDA-MB-361. In words: cells. To be noted: Homo sapiens, MDA-MB-361, 72 h.
In series [5] the target is Serine/threonine-protein kinase mTOR (Homo sapiens, UniProt P42345). In words: Inhibition of mTOR by DELFIA.
Series [6] is described as follows: Metabolic stability in human liver microsomes assessed as half life. The series is classed as ADME, Microsome. (Microsomes from liver hold many membrane-bound enzymes, among them those of drug oxidation.)
For series [7], the target named is Phosphatidylinositol 4,5-bisphosphate 3-kinase catalytic subunit gamma isoform (Homo sapiens, UniProt P48736). The series can be described thus: Inhibition of human PI3Kgamma by fluorescence polarization format assay. In general terms: In fluorescence polarisation assays a small probe gives low polarisation when free and higher when bound to something large.
Chain of Phosphatidylinositol 4,5-bisphosphate 3-kinase catalytic subunit gamma isoform (P48736 whole entry, canonical isoform): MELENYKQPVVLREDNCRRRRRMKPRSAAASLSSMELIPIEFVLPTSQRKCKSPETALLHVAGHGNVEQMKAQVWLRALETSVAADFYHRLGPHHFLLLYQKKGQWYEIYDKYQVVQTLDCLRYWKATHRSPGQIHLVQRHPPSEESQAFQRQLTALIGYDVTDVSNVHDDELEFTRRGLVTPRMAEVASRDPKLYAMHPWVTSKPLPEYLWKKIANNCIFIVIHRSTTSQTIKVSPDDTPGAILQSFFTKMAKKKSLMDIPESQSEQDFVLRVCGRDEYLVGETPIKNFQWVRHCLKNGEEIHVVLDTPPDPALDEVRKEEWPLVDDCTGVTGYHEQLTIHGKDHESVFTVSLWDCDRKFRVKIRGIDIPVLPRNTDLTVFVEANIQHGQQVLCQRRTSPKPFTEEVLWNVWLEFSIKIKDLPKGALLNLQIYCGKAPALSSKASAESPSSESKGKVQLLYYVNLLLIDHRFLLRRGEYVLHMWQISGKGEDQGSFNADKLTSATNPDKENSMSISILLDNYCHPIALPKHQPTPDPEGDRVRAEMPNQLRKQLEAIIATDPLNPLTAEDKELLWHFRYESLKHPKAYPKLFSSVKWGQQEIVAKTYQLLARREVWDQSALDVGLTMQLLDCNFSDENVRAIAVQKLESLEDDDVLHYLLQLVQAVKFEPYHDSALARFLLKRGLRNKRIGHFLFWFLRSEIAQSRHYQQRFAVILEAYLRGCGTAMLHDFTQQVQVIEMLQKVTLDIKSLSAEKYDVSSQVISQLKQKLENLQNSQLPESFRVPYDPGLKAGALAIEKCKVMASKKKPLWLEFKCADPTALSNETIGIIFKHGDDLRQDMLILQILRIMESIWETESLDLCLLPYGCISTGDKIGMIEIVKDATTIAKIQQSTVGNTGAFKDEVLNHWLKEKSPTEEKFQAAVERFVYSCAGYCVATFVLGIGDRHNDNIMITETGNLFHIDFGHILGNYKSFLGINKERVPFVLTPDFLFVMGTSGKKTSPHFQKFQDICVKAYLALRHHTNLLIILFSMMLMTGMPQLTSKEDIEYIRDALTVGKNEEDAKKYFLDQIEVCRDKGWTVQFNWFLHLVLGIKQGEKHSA
Series [8] has as its system Mus musculus. The series can be described thus: Antitumor activity against human MDA-MB-361 cells implanted in mouse assessed as suppression of Akt S473 phosphorylation at 50 mg/kg, iv. The series is classed as functional, organism-based. More on the design: dose 50 mg/kg.
The subject of series [9] is Mus musculus. In words: Antitumor activity against human MDA-MB-361 cells implanted in mouse assessed as suppression of S6 phosphorylation at 50 mg/kg, iv. More on the design: dose 50 mg/kg. The series is classed as functional, organism-based.
Series [10] relates to Mus musculus. In words: Antitumor activity against human MDA-MB-361 cells implanted in mouse assessed as suppression of Akt T308 phosphorylation at 50 mg/kg, iv. The series is classed as functional, organism-based. More on the design: dose 50 mg/kg.
Series [11] can be described thus: Drug level in human MDA-MB-361 cells implanted mouse tumor at 50 mg/kg, iv. The series is classed as ADME, organism-based, Neoplasm. Further details: dose 50 mg/kg, route intravenous. To be noted: in vivo.
For series [12], the system named is Mus musculus. In words: Plasma concentration in human MDA-MB-361 cells implanted mouse at 50 mg/kg, iv. The series is classed as ADME, organism-based. More on the design: dose 50 mg/kg, route intravenous. To be noted: in vivo.
Series [13] relates to Mus musculus. In words: Antitumor activity against human MDA-MB-361 cells implanted in mouse assessed as suppression of P70S6K phosphorylation at 50 mg/kg, iv. The series is classed as functional, organism-based. More on the design: dose 50 mg/kg.

The structures appear in SMILES notation. ≈ marks a conversion by molar mass, not a printed value. Calls of active or inactive are those of the source. No cut-off for these calls is given here.

One may read the solubility as the concentration that dissolves in the medium under given conditions. The low end stands for a poorly soluble substance, the high end for a readily soluble substance. As a reminder, the half-life is the time in which the quantity being followed falls by half. In general, IC50 refers to the point on the concentration scale where inhibition reaches its midpoint. Low readings indicate inhibition by little substance, high ones a need for much substance. With `CCn1nnc2c(N3CCOCC3)nc(-c3ccc(NC(=O)Nc4ccc(C(=O)NCCN5CCN(C)CC5)cc4)cc3)nc21`, the solubility in series [1] came to 1 µg/mL (≈ 1.63 µM); in series [2], 100 µg/mL (≈ 163 µM). Further, the figures for the half-life (in “in vitro” (liver microsomes); in [4]) were 17 min and 28 min, respectively. Further, the IC50 in the series “cells” is 74 nM; in series [3], 3.2 nM; with PC-3, 67 nM; in the series with MDA-MB-361, 24 nM; in series [5], 1.1 nM.
In series [5], `OCc1cccc(-c2nc(N3CCOCC3)c3ncn(C4CCN(Cc5ccccc5)CC4)c3n2)c1` had an IC50 of 634 nM.
`CCn1nnc2c(N3CCOCC3)nc(-c3ccc(NC(=O)Nc4ccnc(C)c4)cc3)nc21` showed a solubility in series [1] of 3 µg/mL (≈ 6.53 µM). The molecule also returned a half-life in the series “in vitro” (liver microsomes) of 11 min. Besides, the figures for the IC50 (with PC-3; with MDA-MB-361; in series [5]) were 252 nM, 196 nM and 21 nM, respectively.
Consider `CCn1nnc2c(N3CCOCC3)nc(-c3ccc(NC(=O)Nc4ccc(C(=O)N(C)C)cc4)cc3)nc21`, for which the concentration in solution in [1] (solubility) came to 1 µg/mL (≈ 1.94 µM). Besides, the half-life in the series “in vitro” (liver microsomes) was 14 min; in [6], > 30 min. The IC50 in the series “cells” stood at 8 nM; in series [3], 1.4 nM; with PC-3 it was 17 nM; in the series on MDA-MB-361 it was 16 nM; in series [5], 0.75 nM.
In “in vitro” (liver microsomes), `O=C(Nc1ccc(-c2nc(N3CCOCC3)c3nnn(C4CC4)c3n2)cc1)Nc1cccs1` registered a half-life of 15 min. Also, the IC50 stood at 149 nM with PC-3, 73 nM in the series with MDA-MB-361 and 3.05 nM in series [5].
On the same counts, the results for `CC(C)n1nnc2c(N3CCOCC3)nc(-c3ccc(NC(=O)Nc4ccncc4)cc3)nc21` are > 30 min, 67 nM, 54 nM and 0.51 nM.
In the case of `CCNC(=O)c1ccc(NC(=O)Nc2ccc(-c3nc(N4CCOCC4)c4nnn(CC)c4n3)cc2)cc1`, the IC50 in series [7] is 17.2 nM; in the series “cells”, 27 nM; in [3], 3 nM; with PC-3, 33 nM; in the series on MDA-MB-361, 29 nM; in [5] it was 0.56 nM. Moreover, the concentration in solution in series [1] (solubility) was 1 µg/mL (≈ 1.94 µM). For the same molecule, the half-life in “in vitro” (microsomes) was 16 min; in [6], > 30 min; in [4], 29 min.
In series [1], `Cn1nnc2c(N3CCOCC3)nc(-c3ccc(NC(=O)Nc4cccnc4)cc3)nc21` showed a solubility of 1 µg/mL (≈ 2.32 µM). Besides, the half-life in the series “in vitro” (microsomes) is 12 min. The IC50 was determined as 281 nM with PC-3, 198 nM in the series with MDA-MB-361 and 2.95 nM in series [5].
On to `CCn1nnc2c(N3CCOCC3)nc(-c3ccc(NC(=O)Nc4ccncc4)cc3)nc21`, for which, in series [1], the concentration in solution (solubility) came to 18 µg/mL (≈ 40.4 µM). The molecule further returned a half-life in the series “in vitro” (liver microsomes) of 27 min. Besides, the IC50 in series [3] is 5 nM; in the series with PC-3 it was 49 nM; with MDA-MB-361, 35 nM; in series [5], 0.63 nM.
As to `O=C(Nc1ccc(-c2nc(N3CCOCC3)c3nnn(C4CC4)c3n2)cc1)Nc1cccnc1`, the IC50 in series [7] was 48.5 nM; in [3], 10.5 nM; in the series with PC-3, 90 nM; in the series with MDA-MB-361 it was 67 nM; in series [5], 0.57 nM. In series [1], this molecule gave a solubility of 1 µg/mL (≈ 2.19 µM). This molecule had a half-life in “in vitro” (liver microsomes) of 24 min.
Take `CC(C)n1nnc2c(N3CCOCC3)nc(-c3ccc(NC(=O)Nc4ccc(N(C)C)cc4)cc3)nc21`: the half-life in “in vitro” (liver microsomes) was 7 min. The IC50 in the series with PC-3 was 171 nM; in the series with MDA-MB-361, 84 nM; in series [5] it was 1.6 nM.
For `O=C(Nc1ccncc1)Nc1ccc(-c2nc(N3CCOCC3)c3nnn(C4CC4)c3n2)cc1`, the half-life in the series “in vitro” (liver microsomes) is 21 min. For the same molecule, the IC50 in the series with PC-3 worked out at 70 nM; in the series on MDA-MB-361 it was 31 nM; in series [5] it was 0.84 nM.
In the series “in vitro” (liver microsomes), `CC(C)n1nnc2c(N3CCOCC3)nc(-c3ccc(NC(=O)Nc4ccc(C(N)=O)cc4)cc3)nc21` came in with a half-life of 9 min. In addition, the IC50 amounted to 3.6 nM in series [3], 57 nM in the series on PC-3, 38 nM in the series with MDA-MB-361 and 0.31 nM in [5].
Molecule `CC(C)n1nnc2c(N3CCOCC3)nc(-c3ccc(NC(=O)Nc4ccc(N5CCOCC5)cc4)cc3)nc21` came in with a solubility in series [1] of 1 µg/mL (≈ 1.84 µM). The half-life in the series “in vitro” (liver microsomes) was 25 min. Moreover, the IC50 worked out at 110 nM with PC-3, 47 nM with MDA-MB-361 and 0.35 nM in [5].
Taken in the same sequence, the figures for `CC(C)n1nnc2c(N3CCOCC3)nc(-c3ccc(NC(=O)Nc4cccnc4)cc3)nc21` were 1 µg/mL (≈ 2.18 µM), 24 min, 91 nM, 39 nM and 0.57 nM.
As to `CCn1nnc2c(N3CCOCC3)nc(-c3ccc(NC(=O)Nc4ccc(C(=O)NCCc5ccccn5)cc4)cc3)nc21`, the IC50 came to 22 nM in series [7]; 65 nM in the series “cells”; 6.8 nM in series [3]; 88 nM in the series with PC-3; 36 nM in the series with MDA-MB-361; 1.21 nM in series [5]. Moreover, the results for the solubility in series [1] and in [2] were 1 µg/mL (≈ 1.69 µM) and 4 µg/mL (≈ 6.75 µM), respectively. Also, the half-life in “in vitro” (liver microsomes) stood at 23 min; in [6], 16 min; in [4], 19 min.
Regarding `CCn1nnc2c(N3CCOCC3)nc(-c3ccc(NC(=O)Nc4cccnc4)cc3)nc21`, in [5], the IC50 turned out to be 0.89 nM.
In turn, `Cn1nnc2c(N3CCOCC3)nc(-c3ccc(NC(=O)Nc4cccs4)cc3)nc21` displayed a solubility in [1] of 2 µg/mL (≈ 4.58 µM). This molecule came in with a half-life in “in vitro” (liver microsomes) of 9 min. Further, the IC50 in the series with PC-3 stood at 366 nM; with MDA-MB-361 it was 184 nM; in series [5] it was 3.7 nM.
`CCCCNC(=O)c1ccc(NC(=O)Nc2ccc(-c3nc(N4CCOCC4)c4nnn(CC)c4n3)cc2)cc1`: the half-life in “in vitro” (liver microsomes) is 21 min; in [6] it was > 30 min; in series [4], 27 min. Moreover, the IC50 in the series “cells” was 47 nM; with PC-3, 96 nM; in the series on MDA-MB-361, 68 nM; in [5] it was 2.7 nM.
The molecule `CCn1nnc2c(N3CCOCC3)nc(-c3ccc(NC(=O)Nc4cccs4)cc3)nc21` yielded a solubility in series [1] of 1 µg/mL (≈ 2.22 µM). In the series “in vitro” (liver microsomes), the half-life was determined as 10 min. Further, the half-maximal inhibitory concentration (IC50) in the series on PC-3 turned out to be 133 nM; with MDA-MB-361 it was 81 nM; in series [5] it was 3 nM.
`CCn1nnc2c(N3CCOCC3)nc(-c3ccc(NC(=O)Nc4ccc(C(=O)NCCN(C)C)cc4)cc3)nc21`: the outcome in the series on Mus musculus [8], with Mus musculus [9], with Mus musculus [10] and in the series on Mus musculus [13] was Active. The IC50 is 12 nM in [7]; 16 nM in “cells”; 52 nM in the series on PC-3; 13 nM in the series on MDA-MB-361; 0.5 nM in series [5]. Further, the solubility in [1] and in series [2] was > 100 µg/mL each time. Also, the half-life in “in vitro” (microsomes) was 29 min; in series [6], > 30 min; in [4] it was 28 min. The Drug uptake in series [11] was found to be 2130 ng/mL. Further, the Cp in the series on Mus musculus [12] turned out to be 1229 ng/mL.
In the case of `CCn1nnc2c(N3CCOCC3)nc(-c3ccc(NC(=O)Nc4ccc(C(N)=O)cc4)cc3)nc21`, the IC50 is 12.2 nM in series [7]; 2.4 nM in [3]; 65 nM in the series on PC-3; 28 nM in the series on MDA-MB-361; 0.39 nM in [5]. The solubility in series [1] was 6 µg/mL (≈ 12.3 µM). Moreover, the half-life in the series “in vitro” (microsomes) turned out to be 21 min.
The molecule `CCn1nnc2c(N3CCOCC3)nc(-c3ccc(NC(=O)Nc4ccc(C(=O)OC)cc4)cc3)nc21` gave a half-life in the series “in vitro” (liver microsomes) of 15 min. Moreover, the IC50 was determined as 285 nM in the series with PC-3, 199 nM in the series with MDA-MB-361 and 2.55 nM in series [5].
Take `OCc1cccc(-c2nc(N3CCOCC3)c3nnn(C4CCN(Cc5ccccc5)CC4)c3n2)c1`: the IC50 came to 393 nM with PC-3 and 250 nM in [5].
On to `CCn1nnc2c(N3CCOCC3)nc(-c3ccc(NC(=O)Nc4ccc(C(=O)NCCCN(C)C)cc4)cc3)nc21`, for which the solubility in [1] and in [2] was 100 µg/mL (≈ 175 µM) each time. Further, the values for the half-life (in “in vitro” (liver microsomes); in series [6]; in series [4]) were 26 min, 30 min and 26 min, respectively. Further, the IC50 was 44 nM in “cells”; 2.4 nM in series [3]; 116 nM in the series on PC-3; 41 nM in the series on MDA-MB-361; 2.2 nM in series [5].

For the origin of these results see ChEMBL document CHEMBL1157707, “Lead optimization of N-3-substituted 7-morpholinotriazolopyrimidines as dual phosphoinositide 3-kinase/mammalian target of rapamycin inhibitors: discovery of PKI-402” (J Med Chem, 2010).
